Results reported in patent publication US10935552B2, “Aie luminogens for visualization and treatment of cancer” (THE HONG KONG UNIVERSITY OF SCIENCE AND TECHNOLOGY, priority 2015, dated 2021).

Key:
[1] = tested on: PC-9 cells; experiment: Cell imaging, PC-9 cells; type: cell-based, human; settings: PC-9, 200 nM, 20 and 10 mins
Procedure: The PC-9, HepG2, and HCC827 cells were grown overnight on a 35 mm petri dish with a cover slip. The live cells were incubated with 200 nM of TPE-IQ-2O for 20 and 10 mins. In all the experiments, the cancer cells are fluorescent in solely staining.
(§1) HepG2 cells (human hepatocarcinoma cell line), PC-9 cells (human lung adenocarcinoma cell line), Hela cells (human cervical carcinoma cell line), and LX2 cells (normal cell, human hepatic stellate cell line) were stained with 200 nM DPA-IQ for 10 min. Images were taken under the same equipment settings. Scale bar: 30 μm. Excitation wavelength: 400-440 nm.

[2] = tested on: COS-7 cells; experiment: LDH cytotoxicity assay, COS-7 cells; type: cell-based, simian; settings: COS-7, with or without white light irradiation
Procedure: The HeLa and COS-7 cells were seeded in 96-well plate for 24 hrs. Then a different concentration of TPE-IQ-2O was added into each well. After 30 mins TPE-IQ-2O treatment in the dark, the dye was removed. Half of the cells were treated with white light irradiation for 90 mins and the rest of cells were kept in the dark. After another 24 hrs of incubation, 10 μL of 10× lysis buffer bromide was added to untreated cells as Maximum LDH Activity, while 10 μL ultrapure water was added to other wells. After incubation at 37° C. 5% CO2 for 45 mins, 50 μL of each well sample medium was transferred to a new 96-well plate, followed by addition of 50 μL reaction mixture. 50 μL stop solution were added into each well after 30 mins incubation protected from light. Then the absorbance was achieved by plate reader.

[3] = tested on: COS-7 cells; experiment: Cell imaging under fluorescent microscope, COS-7 normal cells; type: cell-based, simian; settings: COS-7 stained alone, 200 nM, 1-20 min
Procedure: Cell culture: HeLa cells were cultured in the MEM containing 10% FBS and 1% antibiotics (100 units/mL penicillin and 100 µg/mL streptomycin) in a 5% CO2 humidity incubator at 37° C. COS-7, MDA-MB-231, MCF-7, and MDCK-II cells were culture in the DMEM containing 10% FBS and antibiotics (100 units/mL penicillin and 100 µg/mL streptomycin) in a 5% CO2 humidity incubator at 37° C. Cell imaging: two different kind of cells were grown overnight on a 35 mm petri dish with a cover slip. The live cells were incubated with 200 nM of TPE-IQ-2O for 1, 5, 10, and 20 mins. […] Condition: 200 nM (Filter: both close; Channel 5; EX: 400-440 nm; Exposure time: bright field: 1000 ms Fluorescence: 1000 ms. Two different kinds of cells were grown overnight on a 35 mm petri dish with a cover slip. The live cells were incubated with 200 nM of TPE-IQ-2O for 20, 10, and 5 mins. The MCF-7 cells were stained by TPE-IQ-2O; the COS-7 cells were stained by TPE-IQ-2O; the MCF-7 cells and COS-7 cells were co-cultured and stained together by TPE-IQ-2O. Condition: 200 nM (Filter: both close; Channel 5; EX: 400-440 nm; Exposure time: bright field: 1000 ms Fluorescence: 1000 ms. Two different kinds of cells were grown overnight on a 35 mm petri dish with a cover slip. […] Condition: 200 nM (Filter: both close; Channel 5; EX: 400-440 nm; Exposure time: bright field: 1000 ms Fluorescence: 1000 ms.

[4] = tested on: HeLa cells; experiment: Cell imaging under fluorescent microscope, HeLa cells; type: cell-based, human; settings: 200 nM
Procedure: Cell culture: HeLa cells were cultured in the MEM containing 10% FBS and 1% antibiotics (100 units/mL penicillin and 100 µg/mL streptomycin) in a 5% CO2 humidity incubator at 37° C. COS-7, MDA-MB-231, MCF-7, and MDCK-II cells were culture in the DMEM containing 10% FBS and antibiotics (100 units/mL penicillin and 100 µg/mL streptomycin) in a 5% CO2 humidity incubator at 37° C.
Cell imaging: two different kind of cells were grown overnight on a 35 mm petri dish with a cover slip. The live cells were incubated with 200 nM of TPE-IQ-2O for 1, 5, 10, and 20 mins. In a typical experiment, 2 μL of a 10 mM stock solution of TPE-IQ-2O in DMSO was diluted to 2 mL with cell culture medium, followed by further dilution to desired concentration. The cells were imaged under a fluorescent microscope (BX41 Microscope) using the same excitation and emission filters: excitation filter=400-440 nm, dichroic mirror=455 nm, and emission filter=465 nm long pass.
Two different kinds of cells were grown overnight on a 35 mm petri dish with a cover slip. The live cells were incubated with 200 nM of TPE-IQ-20 for 20, 10, 5, and 1 mins. The Hela cells were stained by TPE-IQ-2O; the COS-7 cells were stained by TPE-IQ-2O; the Hela cells and COS-7 cells were co-cultured and stained together by TPE-IQ-2O. Condition: 200 nM (Filter: both close; Channel 5; EX: 400-440 nm; Exposure time: bright field: 1000 ms Fluorescence: 1000 ms.
Two different kinds of cells were grown overnight on a 35 mm petri dish with a cover slip. The live cells were incubated with 200 nM of TPE-IQ-2O for 10 mins. The Hela cells were stained by TPE-IQ-2O; the MDCKII cells were stained by TPE-IQ-2O; the MDA-MB-231 cells and COS-7 cells were co-cultured and stained together by TPE-IQ-2O. Condition: 200 nM 10 mins (Filter: both close; Channel 5; EX: 400-440 nm; Exposure time: bright field: 1000 ms Fluorescence: 1000 ms.
as §1

In the case of `CCC[n+]1cc2ccc(C(=C(c3ccc(OC)cc3)c3ccc(OC)cc3)c3ccccc3)cc2c(-c2ccccc2)c1-c1ccccc1` [TPE-IQ-2O, 6-(2,2-bis(4-methoxyphenyl)-1-phenylvinyl)-3,4-diphenyl-2-propylisoquinolin-2-ium], the “Fluorescence of stained cells” value [1] is reported as “fluorescent”, the LDH cytotoxicity [2] is reported as “no obvious cytotoxicity” and the “Fluorescence of stained cells” value [3] is reported as “not stained”. For the same compound, the Fluorescence in co-culture ([4]; HeLa and COS-7 co-cultured and stained together) was “fluorescence only from the Hela cancer cell”, the Fluorescence in co-culture ([4]; HeLa and MDCK-II grown in the same environment, 10 mins) was “fluorescence only from the Hela cancer cell” and the “Fluorescence of stained cells” value ([4]; HeLa stained alone, 1-20 min) was “fluorescent”.
